Where two headings read alike, the source gives them in different places. Peptide text beside a SMILES is read from it. * marks the point of attachment. Octanoyl = CCCCCCCC(=O)*
Target: T1, rat GHS-receptor (GHR-R) (Rattus norvegicus, UniProt O08725)
T1 construct: A full-length cDNA for rat GHR-R was obtained by RT-PCR; expressed in transfected cells
Test: Ca-releasing activity (increase in intracellular calcium) in CHO-GHSR62 cells, FLIPR
Format: cell-based
From the text: To assay an increase in the intracellular calcium ion concentration (Ca-releasing activity) occurring upon binding of a GH secretagogue (GHS) to GHS-receptor (GHR-R), a cell strain expressing rat GHR-R was created in the following manner. A full-length cDNA for rat GHR-R was obtained by RT-PCR (reverse transcriptase-polymerase chain reaction) where a cDNA derived from rat brain was used as template. From the nucleotide sequence of known rat GHR-R [K. K. Mckee, et al, Molecular Endocrinology 11, 415-423 (1997)], sense and antisense primers consisting of the following nucleotide sequences were synthesized.
The amplified cDNA was ligated to vector pcDNAIII (Invitrogen) to construct expression vector GHSR-pcDNAIII. CHO cells were transformed via the expression vector, and the transformed cells stably expressing GHR-R were selected in a medium containing 1 μg/ml G418. […] A change in the intracellular calcium ion concentration (Ca-releasing activity) was measured by an FLIPR system (Molecular Device). Before this measurement, 4×10^4 CHO-GHSR62 cells were put to a 96-well microplate with black wall (Corning Co., Ltd) and cultured for 12 to 15 hours. Then, the cells were incubated with 4 μM fluorescent Fluo4 (Molecular Probe Co., Ltd) for 1 hour and washed four times with Hank's BSS (Hank's Balanced Salt Solution) containing 20 mM Hepes ([N-2-hydroxyethyl]-piperazine-N-[2-ethanesulfonic acid]) and 2.5 mM probenecid, and the Ca-releasing activity was assayed by adding a sample and measuring a change in the fluorescence.
Peptide fragments obtained by partially digested the rat- and human-derived ghrelins by various proteases, or chemically synthesized peptides, were examined for their Ca releasing activity in order to determine a core amino acid sequence and the optimum chain length of a modifying fatty acid necessary for Ca-releasing activity.
The Ca-increasing activities of the ghrelin derivative peptide-type compounds synthesized in Example 10 and the natural ghrelin peptide were measured in the same manner as in Example 1.
In this examination, the intracellular Ca-releasing activity in CHO cells expressing rat GSH receptor was used as the indicator.

[1] = CHO-GHSR62 cells (CHO cells expressing rat GHS receptor), FLIPR, read-out: Ca-releasing activity EC50

T1 sequence (O08725 whole entry): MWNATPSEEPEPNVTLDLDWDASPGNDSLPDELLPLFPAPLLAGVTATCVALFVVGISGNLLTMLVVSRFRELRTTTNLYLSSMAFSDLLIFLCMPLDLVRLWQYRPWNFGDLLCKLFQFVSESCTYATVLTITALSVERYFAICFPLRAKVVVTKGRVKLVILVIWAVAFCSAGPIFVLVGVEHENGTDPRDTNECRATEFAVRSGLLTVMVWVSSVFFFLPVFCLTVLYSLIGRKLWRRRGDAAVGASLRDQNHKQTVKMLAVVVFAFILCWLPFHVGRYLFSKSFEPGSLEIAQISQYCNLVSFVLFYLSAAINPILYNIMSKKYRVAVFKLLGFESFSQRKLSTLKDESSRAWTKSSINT

Compound `CCCCCCCC(=O)OC[C@H](NC(=O)[C@H](CO)NC(=O)CN)C(=O)N[C@@H](Cc1ccccc1)C(=O)N[C@@H](CC(C)C)C(=O)N[C@@H](CO)C(=O)N1CCC[C@H]1C(=O)N[C@@H](CCC(=O)O)C(=O)N[C@@H](Cc1cnc[nH]1)C(=O)N[C@@H](CCC(N)=O)C(=O)N[C@@H](CCCNC(=N)N)C(=O)N[C@H](C(=O)N[C@@H](CCC(N)=O)C(=O)N[C@@H](CCC(N)=O)C(=O)N[C@@H](CCCNC(=N)N)C(=O)N[C@@H](CCCCN)C(=O)N[C@@H](CCC(=O)O)C(=O)N[C@@H](CO)C(=O)N[C@@H](CCCCN)C(=O)N[C@@H](CCCCN)C(=O)N1CCC[C@H]1C(=O)N1CCC[C@H]1C(=O)N[C@@H](C)C(=O)N[C@@H](CCCCN)C(=O)N[C@@H](CC(C)C)C(=O)N[C@@H](CCC(N)=O)C(=O)N1CCC[C@H]1C(=O)N[C@@H](CCCNC(=N)N)C(=O)O)C(C)C` [Compound 1, human Ghrelin] has an EC50 (Ca-releasing activity (EC50, nM), Table 3, Example 9: protease fragments or synthetic peptides, CHO-GHSR62 cells) of 2.6 nM and an EC50 (Ca-releasing activity EC50, CHO-GHSR62 cells (CHO cells expressing rat GHS receptor), FLIPR) of 1.3 nM.
For `CCCCCCCC(=O)OC[C@H](NC(=O)[C@H](CO)NC(=O)CN)C(=O)N[C@@H](Cc1ccccc1)C(=O)N[C@@H](CC(C)C)C(=O)N[C@@H](CO)C(=O)N1CCC[C@H]1C(=O)N[C@@H](CCC(=O)O)C(=O)N[C@@H](Cc1c[nH]cn1)C(N)=O` [Compound 3, Ghrelin (1-9)-amide] (H-GSS(Octanoyl)FLSPEH-NH2), the “Ca-releasing activity of ghrelin (1-9) after amidation relative to before amidation” value was “about 7 times” and the EC50 [1] was 5.4 nM.
In the case of `CCCCCCCC(=O)OC[C@H](NC(=O)CN)C(=O)N[C@@H](CO)C(=O)N[C@@H](Cc1ccccc1)C(=O)N[C@@H](CC(C)C)C(=O)N[C@@H](CO)C(=O)N1CCC[C@H]1C(=O)N[C@@H](CCC(=O)O)C(=O)N[C@@H](Cc1c[nH]cn1)C(N)=O` [Compound 4, [Ser^2(Octanoyl), Ser^3]-Ghrelin (1-9)-amide] (H-GS(Octanoyl)SFLSPEH-NH2), the “Ca-releasing activity relative to the 3rd-serine octanoyl parent” value (octanoyl moved from 3rd to 2nd serine) is reported as “about 1/200”.
With `CCCCCCCC(=O)NCC(=O)N[C@@H](CO)C(=O)N[C@@H](CO)C(=O)N[C@@H](Cc1ccccc1)C(=O)N[C@@H](CC(C)C)C(=O)N[C@@H](CO)C(=O)N1CCC[C@H]1C(=O)N[C@@H](CCC(=O)O)C(=O)N[C@@H](Cc1c[nH]cn1)C(N)=O` [Compound 6, [N-Octanoyl, Ser^3]-Ghrelin (1-9)-amide] (Octanoyl-GSSFLSPEH-NH2) the EC50 [1] was > 10000 nM.
For `CC(=O)OC[C@H](NC(=O)[C@H](CO)NC(=O)CN)C(=O)N[C@@H](Cc1ccccc1)C(=O)N[C@@H](CC(C)C)C(=O)N[C@@H](CO)C(=O)N1CCC[C@H]1C(=O)N[C@@H](CCC(=O)O)C(=O)N[C@@H](Cc1c[nH]cn1)C(=O)N[C@@H](CCC(N)=O)C(=O)N[C@@H](CCCCN)C(=O)N[C@@H](C)C(=O)N[C@@H](CCC(N)=O)C(=O)N[C@@H](CCC(N)=O)C(=O)N[C@@H](CCCNC(=N)N)C(=O)N[C@@H](CCCCN)C(=O)N[C@@H](CCC(=O)O)C(=O)N[C@@H](CO)C(=O)N[C@@H](CCCCN)C(=O)N[C@@H](CCCCN)C(=O)N1CCC[C@H]1C(=O)N1CCC[C@H]1C(=O)N[C@@H](C)C(=O)N[C@@H](CCCCN)C(=O)N[C@@H](CC(C)C)C(=O)N[C@@H](CCC(N)=O)C(=O)N1CCC[C@H]1C(=O)N[C@@H](CCCNC(=N)N)C(=O)O` [Compound 8, [Ser^3(Acetyl)]-rGhrelin], the EC50 [1] was 780 nM.
With `CCCC(=O)OC[C@H](NC(=O)[C@H](CO)NC(=O)CN)C(=O)N[C@@H](Cc1ccccc1)C(=O)N[C@@H](CC(C)C)C(=O)N[C@@H](CO)C(=O)N1CCC[C@H]1C(=O)N[C@@H](CCC(=O)O)C(=O)N[C@@H](Cc1c[nH]cn1)C(=O)N[C@@H](CCC(N)=O)C(=O)N[C@@H](CCCCN)C(=O)N[C@@H](C)C(=O)N[C@@H](CCC(N)=O)C(=O)N[C@@H](CCC(N)=O)C(=O)N[C@@H](CCCNC(=N)N)C(=O)N[C@@H](CCCCN)C(=O)N[C@@H](CCC(=O)O)C(=O)N[C@@H](CO)C(=O)N[C@@H](CCCCN)C(=O)N[C@@H](CCCCN)C(=O)N1CCC[C@H]1C(=O)N1CCC[C@H]1C(=O)N[C@@H](C)C(=O)N[C@@H](CCCCN)C(=O)N[C@@H](CC(C)C)C(=O)N[C@@H](CCC(N)=O)C(=O)N1CCC[C@H]1C(=O)N[C@@H](CCCNC(=N)N)C(=O)O` [Compound 10, [Ser^3(Butyryl)]-rGhrelin] the EC50 [1] was 280 nM.
`CCCCCCCCCCCC(=O)OC[C@H](NC(=O)[C@H](CO)NC(=O)CN)C(=O)N[C@@H](Cc1ccccc1)C(=O)N[C@@H](CC(C)C)C(=O)N[C@@H](CO)C(=O)N1CCC[C@H]1C(=O)N[C@@H](CCC(=O)O)C(=O)N[C@@H](Cc1c[nH]cn1)C(=O)N[C@@H](CCC(N)=O)C(=O)N[C@@H](CCCCN)C(=O)N[C@@H](C)C(=O)N[C@@H](CCC(N)=O)C(=O)N[C@@H](CCC(N)=O)C(=O)N[C@@H](CCCNC(=N)N)C(=O)N[C@@H](CCCCN)C(=O)N[C@@H](CCC(=O)O)C(=O)N[C@@H](CO)C(=O)N[C@@H](CCCCN)C(=O)N[C@@H](CCCCN)C(=O)N1CCC[C@H]1C(=O)N1CCC[C@H]1C(=O)N[C@@H](C)C(=O)N[C@@H](CCCCN)C(=O)N[C@@H](CC(C)C)C(=O)N[C@@H](CCC(N)=O)C(=O)N1CCC[C@H]1C(=O)N[C@@H](CCCNC(=N)N)C(=O)O` [Compound 13, [Ser^3(Lauroyl)]-rGhrelin] was tested, and the EC50 [1] was 2.4 nM.
`CCCCCCCCCCCCCCCC(=O)OC[C@H](NC(=O)[C@H](CO)NC(=O)CN)C(=O)N[C@@H](Cc1ccccc1)C(=O)N[C@@H](CC(C)C)C(=O)N[C@@H](CO)C(=O)N1CCC[C@H]1C(=O)N[C@@H](CCC(=O)O)C(=O)N[C@@H](Cc1c[nH]cn1)C(=O)N[C@@H](CCC(N)=O)C(=O)N[C@@H](CCCCN)C(=O)N[C@@H](C)C(=O)N[C@@H](CCC(N)=O)C(=O)N[C@@H](CCC(N)=O)C(=O)N[C@@H](CCCNC(=N)N)C(=O)N[C@@H](CCCCN)C(=O)N[C@@H](CCC(=O)O)C(=O)N[C@@H](CO)C(=O)N[C@@H](CCCCN)C(=O)N[C@@H](CCCCN)C(=O)N1CCC[C@H]1C(=O)N1CCC[C@H]1C(=O)N[C@@H](C)C(=O)N[C@@H](CCCCN)C(=O)N[C@@H](CC(C)C)C(=O)N[C@@H](CCC(N)=O)C(=O)N1CCC[C@H]1C(=O)N[C@@H](CCCNC(=N)N)C(=O)O` [Compound 14, [Ser^3(Palmitoyl)]-rGhrelin] was tested, and the EC50 [1] was 6.5 nM.
For `CC(C)C[C@H](NC(=O)[C@H](CCCCN)NC(=O)[C@H](C)NC(=O)[C@@H]1CCCN1C(=O)[C@@H]1CCCN1C(=O)[C@H](CCCCN)NC(=O)[C@H](CCCCN)NC(=O)[C@H](CO)NC(=O)[C@H](CCC(=O)O)NC(=O)[C@@H](N)CCCCN)C(=O)N[C@@H](CCC(N)=O)C(=O)N1CCC[C@H]1C(=O)N[C@@H](CCCNC(=N)N)C(=O)O` [Compound 19, Ghrelin (16-28)], the EC50 [1] was > 10000 nM and the EC50 (Table 3, Example 9: protease fragments or synthetic peptides, CHO-GHSR62 cells, read-out: Ca-releasing activity (EC50)) was > 10000 nM.
`CCCCCCCC(=O)OC[C@H](NC(=O)[C@H](CO)NC(=O)CN)C(=O)N[C@@H](Cc1ccccc1)C(=O)N[C@@H](CC(C)C)C(=O)N[C@@H](CO)C(=O)N1CCC[C@H]1C(=O)N[C@@H](CCC(=O)O)C(=O)N[C@@H](Cc1c[nH]cn1)C(=O)N[C@@H](CCC(N)=O)C(=O)N[C@@H](CCCNC(=N)N)C(=O)N[C@H](C(=O)N[C@@H](CCC(N)=O)C(=O)N[C@@H](CCC(N)=O)C(=O)N[C@@H](CCCNC(=N)N)C(=O)O)C(C)C` [Compound 20, hGhrelin (1-15)] showed an EC50 [1] of 7 nM.
`CCCCCCCC(=O)OC[C@H](NC(=O)[C@H](CO)NC(=O)CN)C(=O)N[C@@H](Cc1ccccc1)C(=O)N[C@@H](CC(C)C)C(=O)N[C@@H](CO)C(=O)N1CCC[C@H]1C(=O)N[C@@H](CCC(=O)O)C(=O)N[C@@H](Cc1c[nH]cn1)C(=O)N[C@@H](CCC(N)=O)C(=O)N[C@@H](CCCCN)C(=O)N[C@@H](C)C(=O)N[C@@H](CCC(N)=O)C(=O)N[C@@H](CCC(N)=O)C(=O)N[C@@H](CCCNC(=N)N)C(=O)O` [Compound 21, rGhrelin (1-15)] gave an EC50 [1] of 8.6 nM.

Reference: patent US7385026B1, “Modified ghrelin polypeptides” (priority 1999, dated 2008)
